This is an account of results in US5234907A, “Synthetic vasoactive intestinal peptide analogs” (Hoffmann-La Roche Inc., priority 1991, dated 1993).

pEC50: −log10 of the molar value. [ ]: non-standard residue; d: D form. Nle = CCCC[C@H](N)C(=O)O

The subject of assay [1] is guinea pig tracheal smooth muscle. The experiment in a line: Tracheal relaxant activity of VIP analogs on isolated guinea pig tracheal rings. In kind it is cell-based. To be noted: cumulative concentration response; responses as % of maximum response to VIP (10^-6 M=100%); at least three tissues pooled; linear regression. As to the method: The relaxant activity of the VIP analogs was studied in a model utilizing guinea pig trachea. [Wasserman, M. A. et al., in Vasoactive Intestinal Peptide, S. I. Said, ed., Raven Press, N.Y. 1982, pp 177-184]; All tissues were taken from male albino guinea pig weighing 400-600 g, anesthesized with urethane (2 g/kg, i.p.). After exanguination, the trachea were removed and divided into four ring segments (3 mm length). Each ring was suspended by 30 gauge stainless steel wires in a 10 mL jacketed tissue bath and attached via 4-0 silk thread to a Grass force displacement transducer (model FT03C, Grass Instruments Co., Quincy, Ma), for isometric recording of tension. The smooth muscle was bathed in modified Krebs solution of the following composition: NaCl, 120 mM; KCl, 4.7 mM; CaCl2, 2.5 mM; MgSO.4 7H2 O, 1.2 mM; NaHCO3, 25 mM; K2 HPO4 monobasic, 1.2 mM; and dextrose, 10 mM. Tissue baths were maintained at 37° C. and constantly bubbled with 95% O2 and 5% CO2. Responses were recorded on an 8 channel and a 4 channel Hewlett-Packard (model 7702B and 7754A, respectively) recorder (Hewlett-Packard, Paramus, N.J.). […] Frequent readjustments of tension were required during the 60 minute stabilization period which followed. Tissues were rinsed at 15 minute intervals.
Cumulative concentration response curves were obtained for each tissue by successive […] increases in the bath concentration of VIP or VIP analogs according to the method of VanRossum [Arch. Int. Pharmacodyn., 143, 299-330 (1963)]. Only one cumulative dose response curve was obtained on a single tissue. To minimize variability between tissues, relaxant responses were expressed as a percentage of the maximum response obtained to VIP (10^-6 M=100%) added at the end of each concentration response experiment. Responses obtained from at least three tissues were pooled and EC50 values were determined by linear regression.

In a further assay the test system is guinea pigs. The experiment in a line: In vivo bronchodilator activity by tracheal instillation against histamine-induced bronchoconstriction. The note with it: 100 μl, anesthetized male Hartley guinea pigs, histamine challenge 50 μg/kg i.v., inhibition of tracheal pressure increase. Also noted: species or system guinea pig. As for the experimental part:
The in vivo bronchodilator activity of VIP analogs in guinea pigs was assessed by the tracheal instillation route of administration. This technique utilized male guinea pigs (Hartley strain, Charles River) weighing 400-600 g. Animals were anesthetized with urethane (2 g/kg) intraperitoneally and a polyethylene cannula was inserted into the jugular vein for intravenous drug administration.
The animals were tracheotomized and dosing solutions of distilled water or test compound dissolved in distilled water were administered into the trachea, approximately three-quarter the distance to the carina with a pipette. The concentration of the dosing solution was adjusted to deliver a constant volume of 100 μl. The animals were placed supine for one minute to aid drug delivery to the lung. One minute later, spontaneous breathing was arrested with succinylcholine chloride (1.2 mg/kg) administered intravenously, and the animals were ventilized with a Harvard Model 680 small animal respirator set at 40 breaths/min and 4.0 cm^3 stoke volume. The animals were challenged with a maximal constrictory dose of histamine (50 μg/kg, i.v.) and tracheal pressure (cm of water) was recorded from a Statham pressure transducer (P 32 AA).
The change in tracheal pressure was averaged for at least 3 control and 3 drug-treated animals and percent inhibition was calculated. The relative potency of compounds administered by the instillation route was determined by administering various doses of test compound and calculating the median inhibitory dose (ID50 value). The ID50 was determined from log dose-reasons curves generated by at least 3 doses that caused inhibitory effects between 10% and 90%. The correlation coefficient for the regression line of each antagonist was always greater than 0.95.
For determination of the time course of inhibition for various compounds, the time between administration of compound and challenge with histamine was varied. The time course of activity was calculated as the time when inhibition decreased to 40%.

The term pEC50 denotes −log10 of the EC50, conventionally taken in molar units. Higher therefore signals a low EC50. In the case of “Ac--[Glu^8, Lys^12, Nle^17, Ala^19, Ala^25, Leu^26, Lys^27,28, Ala^29-31 ]--VIP (Ac-HSDAVFTENYTKLRKQ[Nle]AAKKYLNALKKAAA-NH2; SMILES CCCC[C@H](NC(=O)[C@H](CCC(N)=O)NC(=O)[C@H](CCCCN)NC(=O)[C@H](CCCNC(=N)N)NC(=O)[C@H](CC(C)C)NC(=O)[C@H](CCCCN)NC(=O)[C@@H](NC(=O)[C@H](Cc1ccc(O)cc1)NC(=O)[C@H](CC(N)=O)NC(=O)[C@H](CCC(=O)O)NC(=O)[C@@H](NC(=O)[C@H](Cc1ccccc1)NC(=O)[C@@H](NC(=O)[C@H](C)NC(=O)[C@H](CC(=O)O)NC(=O)[C@H](CO)NC(=O)[C@H](Cc1c[nH]cn1)NC(C)=O)C(C)C)[C@@H](C)O)[C@@H](C)O)C(=O)N[C@@H](C)C(=O)N[C@@H](C)C(=O)N[C@@H](CCCCN)C(=O)N[C@@H](CCCCN)C(=O)N[C@@H](Cc1ccc(O)cc1)C(=O)N[C@@H](CC(C)C)C(=O)N[C@@H](CC(N)=O)C(=O)N[C@@H](C)C(=O)N[C@@H](CC(C)C)C(=O)N[C@@H](CCCCN)C(=O)N[C@@H](CCCCN)C(=O)N[C@@H](C)C(=O)N[C@@H](C)C(=O)N[C@@H](C)C(N)=O) [Ac--(SEQ ID NO: 21)--NH2]”, in assay [1], the negative-log EC50 (pEC50) was 10.00. Also, the “Bronchodilator activity in guinea pigs, ED50” value (“Bronchodilator activity” below) in the assay on guinea pigs came out at 0.03 µg.

Regarding “Ac--[Glu^8, Lys^12, Nle^17, Ala^19, Val^26, Thr^28, Gly^29,30, Thr^31 ]--VIP (Ac-HSDAVFTENYTKLRKQ[Nle]AAKKYLNSVLTGGT-NH2; SMILES CCCC[C@H](NC(=O)[C@H](CCC(N)=O)NC(=O)[C@H](CCCCN)NC(=O)[C@H](CCCNC(=N)N)NC(=O)[C@H](CC(C)C)NC(=O)[C@H](CCCCN)NC(=O)[C@@H](NC(=O)[C@H](Cc1ccc(O)cc1)NC(=O)[C@H](CC(N)=O)NC(=O)[C@H](CCC(=O)O)NC(=O)[C@@H](NC(=O)[C@H](Cc1ccccc1)NC(=O)[C@@H](NC(=O)[C@H](C)NC(=O)[C@H](CC(=O)O)NC(=O)[C@H](CO)NC(=O)[C@H](Cc1c[nH]cn1)NC(C)=O)C(C)C)[C@@H](C)O)[C@@H](C)O)C(=O)N[C@@H](C)C(=O)N[C@@H](C)C(=O)N[C@@H](CCCCN)C(=O)N[C@@H](CCCCN)C(=O)N[C@@H](Cc1ccc(O)cc1)C(=O)N[C@@H](CC(C)C)C(=O)N[C@@H](CC(N)=O)C(=O)N[C@@H](CO)C(=O)N[C@H](C(=O)N[C@@H](CC(C)C)C(=O)N[C@H](C(=O)NCC(=O)NCC(=O)N[C@H](C(N)=O)[C@@H](C)O)[C@@H](C)O)C(C)C) [Ac--(SEQ ID NO: 15)--NH2]”, the pEC50 in assay [1] was 9.26. In the assay on guinea pigs, the “Bronchodilator activity” value turned out to be 0.064 µg.

Consider “Ac--[Glu^8, Lys^12, Nle^17, Ala^25, Leu^26, Lys^27,28, Gly^29,30, Thr^31 ]--VIP (Ac-HSDAVFTENYTKLRKQ[Nle]AVKKYLNALKKGGT-NH2; SMILES CCCC[C@H](NC(=O)[C@H](CCC(N)=O)NC(=O)[C@H](CCCCN)NC(=O)[C@H](CCCNC(=N)N)NC(=O)[C@H](CC(C)C)NC(=O)[C@H](CCCCN)NC(=O)[C@@H](NC(=O)[C@H](Cc1ccc(O)cc1)NC(=O)[C@H](CC(N)=O)NC(=O)[C@H](CCC(=O)O)NC(=O)[C@@H](NC(=O)[C@H](Cc1ccccc1)NC(=O)[C@@H](NC(=O)[C@H](C)NC(=O)[C@H](CC(=O)O)NC(=O)[C@H](CO)NC(=O)[C@H](Cc1c[nH]cn1)NC(C)=O)C(C)C)[C@@H](C)O)[C@@H](C)O)C(=O)N[C@@H](C)C(=O)N[C@H](C(=O)N[C@@H](CCCCN)C(=O)N[C@@H](CCCCN)C(=O)N[C@@H](Cc1ccc(O)cc1)C(=O)N[C@@H](CC(C)C)C(=O)N[C@@H](CC(N)=O)C(=O)N[C@@H](C)C(=O)N[C@@H](CC(C)C)C(=O)N[C@@H](CCCCN)C(=O)N[C@@H](CCCCN)C(=O)NCC(=O)NCC(=O)N[C@H](C(N)=O)[C@@H](C)O)C(C)C) [Ac--(SEQ ID NO: 16)--NH2]”, for which the pEC50 in assay [1] is 9.57. Besides, the “Bronchodilator activity” value with guinea pigs stood at 0.043 µg.
